How the values were obtained:
Format in all cases: cell-based
[1] = system: human dermal fibroblasts (hDF) introduced with reprogramming genes; assay: Colony number of induced pluripotent stem cells by alkaline phosphatase (AP) staining; conditions: for dedifferentiation induction, graph counting and quantifying the number of colonies / AP-stained colonies: 10 μM peptide, 10 days at 24-hr intervals, FIG. 1; for AP-stained colonies: compared with cells without peptide and control peptides C1 or C2; for AP staining clarity: group treated with peptide, reported with FIG. 2
Source text: In order to verify the dedifferentiation induction efficiency of each peptide, the DNAs of reprogramming genes Oct3/4, Sox2, c-Myc, Klf4, and Lin28 were introduced to human dermal fibroblasts (hDF) of 1.5×10^5/well on a 6-well coated with […] of vitronectin recombinant human protein (VTN-N) by an electroporation method. According to a known method, the reprogramming genes were divided into three groups and cloned into three different episomal vectors and expressed together with p53 shRNA(pCXLE-hOCT3/4-shp53, pCXLE-hSK, and pCXLE-hUL) to enhance the establishment efficiency of dedifferentiation of stem cells (Okita, K. et al., Nat. Methods. 8(5):409-12, 2011). The cells introduced with the reprogramming genes were cultured in an Eagle's minimal essential medium (EMEM, ATCC) and the medium was replaced at 24-hr intervals until cell confluency became 50%. When the confluency became 50%, 10 μM of a dedifferentiation induction-promoting peptide and a control peptide were treated, respectively, and the medium was replaced with Essential 8 Medium and the peptides were treated at the same time as the medium replacement every 24 hrs. The peptide was treated for 10 days at 24-hr intervals, and in order to verify dedifferentiation efficiency per peptide, alkaline phosphatase (AP), known as a marker of embryonic stem cells, was used. For AP staining, an alkaline phosphatase detection kit(Milipore) was used. The medium was removed, 4% paraformaldehyde was added to the cells and they were immobilized for 2 minutes, a Naphthol/Fast Red Violet staining agent was added in a well and reacted at room temperature in a dark space for 20 minutes or more, and then the staining agent was washed with Dulbecco's phosphate buffered saline (DPBS) and the number of stained colonies was verified with a microscope.

[2] = system: human dermal fibroblasts introduced with reprogramming genes; assay: Oct4 embryonic stem cell marker expression by immunofluorescence (IF); conditions: 10 μM peptide for 10 days; compared with cells without peptide and control peptides C1 or C2; FIG. 2
Experimental: Using the same method as in Example 2-1, reprogramming genes were introduced into the cells by an electroporation method in human dermal fibroblasts and divided in a 6-well coated with vitronectin. Thereafter, expression levels of Oct4 as a marker of embryonic stem cells were compared with each other by using an immunofluorescence (IF) method. The cells treated with 10 μM of each peptide for 10 days were fixed with 4% paraformaldehyde for 10 minutes at room temperature, and then 0.5% Triton-X 100 was added and they were cultured for 15 minutes at room temperature to pass through a cell wall and to penetrate into nuclei in the cells, and blocked with a buffer PBS in which 3% bovine serum albumin (BSA) was dissolved for 30 minutes. An Oct4 primary antibody was diluted with a buffer PBS in which 1% BSA was dissolved at a ratio of 1:100 and reacted for 16 hrs at 4° C. and a secondary antibody bound with fluorescein isothiocyanate (FITC) was diluted at a ratio of 1:200 and reacted for 1 hr at room temperature. Finally, a dye (Hoechst 33342, blue) for staining nuclei was treated for 10 minutes at room temperature and washed with a buffer PBS, and colonies with the clearest fluorescent expression in the well were photographed with a confocal scanning microscope (IX 70, Olympus Co., Tokyo, Japan).

[3] = system: human dermal fibroblasts introduced with reprogramming genes; assay: Mesenchymal-epithelial transition (MET) by THY1/EPCAM flow cytometry (FACS); conditions: 10 days of peptide treatment; compared with control peptides C1 or C2; FIG. 3
Experimental: Using the same method as in Example 2-1, reprogramming genes were introduced into the cells by an electroporation method in human dermal fibroblasts and divided in a 6-well coated with Vitronectin. After 10 days of peptide treatment in which the cells were stabilized, the cells were collected in a 15 ml Falcon tube by using a scrapper and then centrifuged for 3 minutes at 1500 rpm. The cells were washed with a buffer (PBS) and then 1.5×10^5 cells were transferred to each tube by using cold PBS. THY1 (cat: sc-59398) and EPCAM (cat: ab20160) antibodies at a concentration of 10 μg/ml were diluted with a 3% BSA/PBS solution in the tube and reacted for 30 minutes at 4° C., and then centrifuged three times for 5 minutes at 1500 rpm. After washing with cold PBS, the cells were transferred to a round tube and analyzed by flow cytometry (FACS). Before measuring samples, a control reference value was fixed using THY1 for human dermal fibroblasts and EPCAM for a human mammary epithelial cell (HMEC).

| Sequence | dedifferentiation induction, graph counting and quantifying the number of colonies [1] | AP-stained colonies [1] | AP staining clarity [1] | Oct4 fluorescence expression (IF) [2] | change of mesenchymal shape of dermal fibroblasts to epithelial shape (THY1/EPCAM, FACS) [3] |
| --- | --- | --- | --- | --- | --- |
| GKCSTRGRKCMRRKK (Functional Peptide P2) [peptide P1 with the fifth cysteine of C terminal substituted with methionine] | more efficiently induced dedifferentiation | more colonies were stained | clearer | more fluorescence was expressed | significantly changed to an epithelial shape |
| GKCSTRGRKMCRRKK [Peptide P3] | more efficiently induced dedifferentiation | more colonies were stained | clearer | more fluorescence was expressed | significantly changed to an epithelial shape |
| GKCSTRGRKCCRRKK (Functional Peptide P1) [dedifferentiation induction-promoting functional peptide] | more efficiently induced dedifferentiation | more colonies were stained | clearer | more fluorescence was expressed | significantly changed to an epithelial shape |

— patent US10066212B2, “Method for preparing induced pluripotent stem cells using synthetic peptide” (Seoul National University R&DB Foundation, priority 2015, dated 2018)
